Measurements from patent US5118690A, “Pharmaceutical tetrahydroisoquinolines” (John Wyeth & Brother Limited, priority 1989, dated 1992).

Key:
[1] = target: GABA autoreceptor; experiment: antagonist activity at GABA autoreceptors by blockade of agonist (muscimol)-induced inhibition of potassium-evoked [3H]-GABA release from rat cortex slices in vitro (Procedure 1); format: biochemical; details: for Antagonism at GABA autoreceptor pA2 values: Procedure 1, agonist muscimol, rat cerebral cortex slices; for IC50: inhibition of the effect of a single concentration of muscimol, read-out: IC50 value (GABA autoreceptor antagonism)
From the text: (§1) Advantageously compounds of formula I appear to be selective in that they display little or no activity at GABAA receptors. The following test procedures were used to measure antagonist activity at (a) GABA autoreceptors by blockade of agonist-induced inhibition of potassium-evoked GABA release from rat cortex in vitro (Procedure 1); and (b) GABAA receptors by antagonism of agonist-induced depolarization of the isolated rat vagus nerve (Procedure 2):
Slices (0.25×0.25×2.0 mm) of rat cerebral cortex are prepared using a McIlwain tissue chopper. The slices are incubated in Krebs-Henseleit solution containing [^3 H]-GABA (10^-7 M) in the presence of amino-oxyacetic acid (AOAA) for 20 minutes at 37° C., rinsed with 5ml aliquots of Krebs-Henseleit solution and transferred to 10 superfusion chambers (volume 300μl). The slices are continuously superfused with Krebs-Henseleit solution (0.4 ml min^-1) containing AOAA (10^-5 M) and fractions of the superfusate collected every 4 minutes. Transmitter release is induced by 4 minute exposure to a Krebs-Henseleit solution containing 25 mM potassium ion (with concomitant reduction in sodium to maintain osmolarity) after 68 […] and 92 (S2) minutes of superfusion. The antagonist compound under study is added to the superfusing medium 10 minutes prior to the first potassium stimulation and remains throughout the superfusion. The GABA autoreceptor is activated by adding the agonist muscimol 20 minutes before the second potassium stimulation. The residual radioactivity in the slices at the end of the experiment together with that in the superfusate. fractions is measured by liquid scintillation counting
Calculations: The amount of radioactivity in each fraction is expressed as a percentage of the total radioactivity in the tissue at the start of the respective collection period. The amount of radioactivity released above basal by the increased potassium is calculated and the ratio S2/S1 obtained. The S2/S1 ratio from muscimol-treated slices is expressed as a percentage of the control drug-free S2/S1 ratio. A dose-response curve for the agonist muscimol is constructed and the effect of antagonists is measured by their ability to displace this dose-response curve to the right. From this measurement a pA2 value can be calculated. Alternatively, an IC50 value for antagonists can be calculated by inhibiting the effect of a single concentration of muscimol with increasing concentrations of antagonist.

[2] = test system: GABAA receptor; experiment: antagonism at GABAA receptors: antagonism of GABA-induced depolarization of the isolated rat vagus nerve (Procedure 2); format: biochemical
From the text: as §1
Male Sprague-Dawley rats (250-400g) are killed by a blow to the head and cervical dislocation. The cervical vagus nerves are transferred into Krebs' solution at room temperature and the connective tissue sheath removed. The vagus nerves are placed in two-compartment Perspex baths to permit extracellular recording of agonist induced depolarizations. Each nerve projects from one compartment to the next by way of a grease filled slot, the grease serving to insulate the compartments from each other. […] One compartment is continuously perfused (5ml min^-1) with Krebs' solution at 27° C. to which agonist and antagonist drugs are added. […] Non-cumulative concentration-response curves to GABA (10^-6 to 3×10^-4 M) are obtained using a 5 min contact time and 10-20 min wash period and the effect of the test antagonist compound is measured by its ability to shift this concentration-response curve to the right.

[3] = test system: GABA autoreceptor; details: previously shown; cited from earlier work
[4] = known; cited from earlier work
[5] = test system: GABAA receptor; details: non-selective; cited from earlier work

| Compound | Antagonism at GABA autoreceptor pA2 values [1] | IC50 [1] | other results |
| --- | --- | --- | --- |
| c1csc(C2NCCc3ccccc32)c1 (racemic) [E, 1,2,3,4-Tetrahydro-1-(2-thienyl)isoquinoline] | 8.4 | – | – |
| COc1cc2c(cc1OC)[C@H]([C@@H]1CCCO1)NCC2 (relative stereo) [A, 1RS,2'SR-1-(2-Tetrahydrofuranyl)-1,2,3,4-tetrahydro-6,7 dimethoxyisoquinoline] | 7.0 | – | Antagonism at GABAA receptors ([2]; at 10^-4 M): inactive |
| COc1cc2c(cc1OC)[C@H]([C@H]1CCCO1)NCC2 (relative stereo) [B, 1RS,2'RS-1-(2-Tetrahydrofuranyl) -1,2,3,4- Tetrahydro-6,7-dimethoxyisoquinoline] | 5.2 | – | – |
| c1ccc2c(c1)CCN[C@H]2[C@@H]1CCCO1 (relative stereo) [Compound C, 1RS, 2'SR-1-(2-Tetrahydrofuranyl)-1,2,3,4-tetrahydroisoquinoline] | 8.5 | – | – |
| CN1CCc2ccccc2[C@@H]1[C@@H]1CCCO1 (relative stereo) [Compound D, 1RS, 2'SR-1-(2-Tetrahydrofuranyl)-2-methyl-1,2,3,4-tetrahydroisoquinoline] | 9.2 | – | Antagonism at GABAA receptors ([2]; at 10^-5 M): inactive |
| c1ccc2c(c1)CCN[C@H]2[C@@H]1CCCO1 (single isomer, unassigned) [(+) isomer of Compound C] | – | 8600 nM | – |
| CN1CCc2ccccc2[C@@H]1[C@@H]1CCCO1 (single isomer, unassigned) [(+) isomer of Compound D, (+)1R*,2'S*-1-(2-tetrahydrofuranyl)-2-methyl-1,2,3,4-tetrahydroisoquinoline] | – | 2.7 nM | – |
| c1ccc2c(c1)CCN[C@H]2[C@@H]1CCCO1 (single isomer, unassigned) [(-) enantiomer of Compound C] | – | 20 nM | – |
| CN1CCc2ccccc2[C@@H]1[C@@H]1CCCO1 (single isomer, unassigned) [(-) isomer of Compound D, (-) 1R*,2'S*-1-(2-tetrahydrofuranyl)-2-methyl-1,2,3,4-tetrahydroisoquinoline] | – | 260 nM | – |
| Oc1ccc(C2NCCc3cc(O)c(O)cc32)cc1 (stereo not drawn) [Example 12, 1-(4-Hydroxyphenyl)-6,7-dihydroxy-1,2,3,4-tetrahydroisoquinoline] | – | 480 nM | – |
| CN1CCc2cc3c(cc2[C@H]1[C@@H]1OC(=O)c2c1ccc1c2OCO1)OCO3 [bicuculline] | – | – | activity at GABA autoreceptor [3]: antagonists at the GABA autoreceptor; convulsant action [4]: known convulsants; activity at GABAA receptor [5]: also active at the GABAA receptor |
| picrotoxin | – | – | activity at GABA autoreceptor [3]: antagonists at the GABA autoreceptor; convulsant action [4]: known convulsants; activity at GABAA receptor [5]: also active at the GABAA receptor |
